# In patent publication US9290453B2 (Merck Sharp & Dohme Corp., priority 2010, dated 2016):
# Target: T1, hCRTH2 (Homo sapiens, UniProt Q9Y5Y4)
# T1 construct: expressed in transfected cells; host or cells: HEK (human embryonic kidney) cells expressing hCRTH2
# T1 sequence (Q9Y5Y4 1-395): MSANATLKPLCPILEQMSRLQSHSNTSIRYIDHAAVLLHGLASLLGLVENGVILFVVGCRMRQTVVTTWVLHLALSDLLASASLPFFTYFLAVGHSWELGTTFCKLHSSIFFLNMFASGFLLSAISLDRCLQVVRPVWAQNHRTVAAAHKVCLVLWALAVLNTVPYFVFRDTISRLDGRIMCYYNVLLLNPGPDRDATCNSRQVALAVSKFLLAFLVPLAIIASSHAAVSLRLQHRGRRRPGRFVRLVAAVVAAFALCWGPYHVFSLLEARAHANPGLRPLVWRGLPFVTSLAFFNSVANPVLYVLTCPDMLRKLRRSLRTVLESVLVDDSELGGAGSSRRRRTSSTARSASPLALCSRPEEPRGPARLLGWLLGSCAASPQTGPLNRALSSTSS
# Assay: Radioligand Binding Assay B (scintillation proximity assay, [3H]-PGD2, HEK-hCRTH2 membranes)
# Conditions: Radioligand Binding Assay B (SPA), values in text
# Method: Radioligand binding also was performed using scintillation proximity assay (SPA) technology in a similar way as described above in Radioligand Binding Assay A with minor modification. Assays were done at room temperature in 10 mM HEPES pH 7.4, 1 mM EDTA containing 2 mM MnCl2 and 16 nM [^3H]-PGD2 (PerkinElmer, Waltham, Mass.) (164 Ci mmol^−1), in a final volume of 0.05 mL. Competing ligands were diluted in dimethylsulfoxide (Me2SO) and added using very low volumes (50 nL). The reaction was initiated by the addition of a mixture of 3.52 μg of membrane protein prepared from a human embryonic kidney (HEK)-hCRTH2 cell line adhered to 140 ug of wheatgerm agglutinin SPA beads (PerkinElmer). Total and non-specific binding were determined in the absence and the presence of 10 μM of a CRTH2 antagonist, respectively. The reaction was routinely conducted for 60 min at room temperature followed by centrifugation for 5 minutes at 1000 RPM. The radioactivity was measured with a TopCountNXT (PerkinElmer). Results determined using the SPA-based assay were similar to those from the filtration binding assay.
row,Structure (SMILES),Ki
1,"O=C(O)CCCCc1cc2cc(C(=O)N3CCN(c4ccccc4)CC3)ccc2nc1-c1ccc(F)cc1 [Compound 5AF, 5-(2-(4-fluorophenyl)-6-(4-phenylpiperazine-1-carbonyl)quinolin-3-yl)pentanoic acid]",11.6 nM
2,"Cc1ccccc1N1CCN(C(=O)c2ccc3nc(-c4ccc(F)cc4)c(CCCCC(=O)O)cc3c2)CC1 [Compound 5AT, 5-(2-(4-fluorophenyl)-6-(4-(o-tolyl)piperazine-1-carbonyl)quinolin-3-yl)pentanoic acid]",7.2 nM

# Same assay, conditions: Table B, Radioligand Binding Assay B (SPA), rated A-D
row,Structure (SMILES),Ki
1,"Cc1cccc(N2CCN(C(=O)c3ccc4nc(-c5ccccc5)c(CCCCC(=O)O)cc4c3)CC2)c1 [Compound 1BC, 5-(2-phenyl-6-(4-(m-tolyl)piperazine-1-carbonyl)quinolin-3-yl)pentanoic acid]",2.1 to 20 nM
2,"COc1ccc(N2CCN(C(=O)c3ccc4nc(-c5ccccc5)c(CCCCC(=O)O)cc4c3)CC2)cc1 [Compound 1BD, 5-(6-(4-(4-methoxyphenyl)piperazine-1-carbonyl)-2-phenylquinolin-3-yl)pentanoic acid]",2.1 to 20 nM
3,"O=C(O)CCCCc1cc2cc(C(=O)N[C@@H]3CCOc4ccccc43)ccc2nc1-c1ccc(F)cc1 [Compound 5AD, (R)-5-(6-(chroman-4-ylcarbamoyl)-2-(4-fluorophenyl)quinolin-3-yl)pentanoic acid]",2.1 to 20 nM
4,"O=C(O)CCCCc1cc2cc(C(=O)N[C@@H]3CCCc4cc(F)ccc43)ccc2nc1-c1ccc(F)cc1 [Compound 5AE, (R)-5-(6-((6-fluoro-1,2,3,4-tetrahydronaphthalen-1-yl)carbamoyl)-2-(4-fluorophenyl)quinolin-3-yl)pentanoic acid]",2.1 to 20 nM
5,"O=C(O)CCCCc1cc2cc(C(=O)N3CCN(c4ccccc4)CC3)ccc2nc1-c1ccc(F)cc1 [Compound 5AF, 5-(2-(4-fluorophenyl)-6-(4-phenylpiperazine-1-carbonyl)quinolin-3-yl)pentanoic acid]",2.1 to 20 nM
6,"O=C(O)CCCCc1cc2cc(C(=O)N3CC(c4cccc(F)c4)C3)ccc2nc1-c1ccc(F)cc1 [Compound 5AG, 5-(2-(4-fluorophenyl)-6-(3-(3-fluorophenyl)azetidine-1-carbonyl)quinolin-3-yl)pentanoic acid]",20.1 to 200 nM
7,"O=C(O)CCCCc1cc2cc(C(=O)N3CC[C@@H](c4ccccc4)C3)ccc2nc1-c1ccc(F)cc1 [Compound 5AH, (S)-5-(2-(4-fluorophenyl)-6-(3-phenylpyrrolidine-1-carbonyl)quinolin-3-yl)pentanoic acid]",2.1 to 20 nM
8,"CC1(C)CC(NC(=O)c2ccc3nc(-c4ccc(F)cc4)c(CCCCC(=O)O)cc3c2)c2ccccc2O1 (stereo not drawn) [Compound 5AJ, 5-(6-((2,2-dimethylchroman-4-yl)carbamoyl)-2-(4-fluorophenyl)quinolin-3-yl)pentanoic acid]",2.1 to 20 nM
9,"CC1(C)CCC(NC(=O)c2ccc3nc(-c4ccc(F)cc4)c(CCCCC(=O)O)cc3c2)c2ccccc21 (stereo not drawn) [Compound 5AK, 5-(6-((4,4-dimethyl-1,2,3,4-tetrahydronaphthalen-1-yl)carbamoyl)-2-(4-fluorophenyl)quinolin-3-yl)pentanoic acid]",2.1 to 20 nM
10,"O=C(O)CCCCc1cc2cc(C(=O)NC3CC(=O)Nc4ccccc43)ccc2nc1-c1ccc(F)cc1 (stereo not drawn) [Compound 5AL, 5-(2-(4-fluorophenyl)-6-((2-oxo-1,2,3,4-tetrahydroquinolin-4-yl)carbamoyl)quinolin-3-yl)pentanoic acid]",2.1 to 20 nM
11,"O=C(O)CCCCc1cc2cc(C(=O)N3CC(c4ccccc4)C3)ccc2nc1-c1ccc(F)cc1 [Compound 5AM, 5-(2-(4-fluorophenyl)-6-(3-phenylazetidine-1-carbonyl)quinolin-3-yl)pentanoic acid]",2.1 to 20 nM
12,"O=C(O)CCCCc1cc2cc(C(=O)NCc3ccccc3)ccc2nc1-c1ccc(F)cc1 [Compound 5AN, 5-(6-(benzylcarbamoyl)-2-(4-fluorophenyl)quinolin-3-yl)pentanoic acid]",20.1 to 200 nM
13,"COc1ccccc1C1CCN(C(=O)c2ccc3nc(-c4ccc(F)cc4)c(CCCCC(=O)O)cc3c2)CC1 [Compound 5AP, 5-(2-(4-fluorophenyl)-6-(4-(2-methoxyphenyl)piperidine-1-carbonyl)quinolin-3-yl)pentanoic acid]",2.1 to 20 nM
14,"O=C(O)CCCCc1cc2cc(C(=O)N3CCC4(CC3)OCc3ccccc34)ccc2nc1-c1ccc(F)cc1 [Compound 5AQ, 5-(2-(4-fluorophenyl)-6-(3H-spiro[isobenzofuran-1,4′-piperidin]-1′-ylcarbonyl)quinolin-3-yl)pentanoic acid]",2.1 to 20 nM
15,"O=C(O)CCCCc1cc2cc(C(=O)N3CCN(c4ccccc4C(F)(F)F)CC3)ccc2nc1-c1ccc(F)cc1 [Compound 5AR, 5-(2-(4-fluorophenyl)-6-(4-(2-(trifluoromethyl)phenyl)piperazine-1-carbonyl)quinolin-3-yl)pentanoic acid]",2.1 to 20 nM
16,"O=C(O)CCCCc1cc2cc(C(=O)N3CCN(c4ccccc4Cl)CC3)ccc2nc1-c1ccc(F)cc1 [Compound 5AS, 5-(6-(4-(2-chlorophenyl)piperazine-1-carbonyl)-2-(4-fluorophenyl)quinolin-3-yl)pentanoic acid]",2.1 to 20 nM

row,Structure (SMILES),Ki
1,"Cc1ccccc1N1CCN(C(=O)c2ccc3nc(-c4ccc(F)cc4)c(CCCCC(=O)O)cc3c2)CC1 [Compound 5AT, 5-(2-(4-fluorophenyl)-6-(4-(o-tolyl)piperazine-1-carbonyl)quinolin-3-yl)pentanoic acid]",2.1 to 20 nM
2,"Cc1cccc(N2CCN(C(=O)c3ccc4nc(-c5ccc(F)cc5)c(CCCCC(=O)O)cc4c3)CC2)c1 [Compound 5AU, 5-(2-(4-fluorophenyl)-6-(4-(m-tolyl)piperazine-1-carbonyl)quinolin-3-yl)pentanoic acid]",2.1 to 20 nM
3,"COc1ccc(N2CCN(C(=O)c3ccc4nc(-c5ccc(F)cc5)c(CCCCC(=O)O)cc4c3)CC2)cc1 [Compound 5AV, 5-(2-(4-fluorophenyl)-6-(4-(4-methoxyphenyl)piperazine-1-carbonyl)quinolin-3-yl)pentanoic acid]",2.1 to 20 nM
4,"Cc1ccc(N2CCN(C(=O)c3ccc4nc(-c5ccc(F)cc5)c(CCCCC(=O)O)cc4c3)CC2)cc1 [Compound 5AW, 5-(2-(4-fluorophenyl)-6-(4-(p-tolyl)piperazine-1-carbonyl)quinolin-3-yl)pentanoic acid]",2.1 to 20 nM
5,"O=C(O)CCCCc1cc2cc(C(=O)N3CCN(c4ccc(F)cc4)CC3)ccc2nc1-c1ccc(F)cc1 [Compound 5AX, 5-(2-(4-fluorophenyl)-6-(4-(4-fluorophenyl)piperazine-1-carbonyl)quinolin-3-yl)pentanoic acid]",2.1 to 20 nM
6,"O=C(O)CCCCc1cc2cc(C(=O)N[C@@H]3CCCc4cc(F)ccc43)ccc2nc1-c1ccc(Cl)cc1 [Compound 5AY, (R)-5-(2-(4-chlorophenyl)-6-((6-fluoro-1,2,3,4-tetrahydronaphthalen-1-yl)carbamoyl)quinolin-3-yl)pentanoic acid]",2.1 to 20 nM
7,"O=C(O)CCCCc1cc2cc(C(=O)N[C@@H]3CCCc4ccccc43)ccc2nc1-c1ccc(Cl)cc1 [Compound 5AZ, (R)-5-(2-(4-chlorophenyl)-6-((1,2,3,4-tetrahydronaphthalen-1-yl)carbamoyl)quinolin-3-yl)pentanoic acid]",2.1 to 20 nM
8,"CN(Cc1ccc(F)cc1)C(=O)c1ccc2nc(-c3ccc(F)cc3)c(CCCCC(=O)O)cc2c1 [Compound 5Ai, 5-(6-((4-fluorobenzyl)(methyl)carbamoyl)-2-(4-fluorophenyl)quinolin-3-yl)pentanoic acid]",2.1 to 20 nM
9,"N#Cc1ccccc1N1CCN(C(=O)c2ccc3nc(-c4ccc(F)cc4)c(CCCCC(=O)O)cc3c2)CC1 [Compound 5Ao, 5-(6-(4-(2-cyanophenyl)piperazine-1-carbonyl)-2-(4-fluorophenyl)quinolin-3-yl)pentanoic acid]",2.1 to 20 nM
10,"O=C(O)CCCCc1cc2cc(C(=O)N[C@@H]3CCOc4ccccc43)ccc2nc1-c1ccc(Cl)cc1 [Compound 5BA, (R)-5-(2-(4-chlorophenyl)-6-(chroman-4-ylcarbamoyl)quinolin-3-yl)pentanoic acid]",2.1 to 20 nM
11,"O=C(O)CCCCc1cc2cc(C(=O)N[C@@H]3COc4ccccc43)ccc2nc1-c1ccc(Cl)cc1 [Compound 5BB, (S)-5-(2-(4-chlorophenyl)-6-((2,3-dihydrobenzofuran-3-yl)carbamoyl)quinolin-3-yl)pentanoic acid]",2.1 to 20 nM
12,"C[C@@H](NC(=O)c1ccc2nc(-c3ccc(Cl)cc3)c(CCCCC(=O)O)cc2c1)c1ccc(F)cc1 [Compound 5BC, (R)-5-(2-(4-chlorophenyl)-6-((1-(4-fluorophenyl)ethyl)carbamoyl)quinolin-3-yl)pentanoic acid]",2.1 to 20 nM
13,"O=C(O)CCCCc1cc2cc(C(=O)N3CCN(c4ccccc4)CC3)ccc2nc1-c1ccc(Cl)cc1 [Compound 5BD, 5-(2-(4-chlorophenyl)-6-(4-phenylpiperazine-1-carbonyl)quinolin-3-yl)pentanoic acid]",2.1 to 20 nM
14,"O=C(O)CCCCc1cc2cc(C(=O)N3CC(c4cccc(F)c4)C3)ccc2nc1-c1ccc(Cl)cc1 [Compound 5BE, 5-(2-(4-chlorophenyl)-6-(3-(3-fluorophenyl)azetidine-1-carbonyl)quinolin-3-yl)pentanoic acid]",2.1 to 20 nM
15,"O=C(O)CCCCc1cc2cc(C(=O)N3CC[C@@H](c4ccccc4)C3)ccc2nc1-c1ccc(Cl)cc1 [Compound 5BF, (S)-5-(2-(4-chlorophenyl)-6-(3-phenylpyrrolidine-1-carbonyl)quinolin-3-yl)pentanoic acid]",2.1 to 20 nM
